In paper PMC3789257 (Journal of the American Chemical Society, 2012):

Experiments:
p53 mutant Y220C [1] = settings: binding to the mutation-induced crevice; cited from earlier work
p53 mutant Y220C [2] = settings: in vitro; cited from earlier work
T-p53-Y220C = T-p53-Y220C (Homo sapiens, UniProt P04637, M133L/N239Y/N268D/V203A/Y220C); assay: 1H/15N-HSQC NMR titration; type: binding; settings: 20 °C, 75 μM protein
T-p53C-Y220C = T-p53C-Y220C (Homo sapiens, UniProt P04637, M133L/N239Y/N268D/V203A/Y220C); assay: Isothermal titration calorimetry; type: binding
Sequence of T-p53C-Y220C (P04637 102-292 limits assumed, stated change not applied): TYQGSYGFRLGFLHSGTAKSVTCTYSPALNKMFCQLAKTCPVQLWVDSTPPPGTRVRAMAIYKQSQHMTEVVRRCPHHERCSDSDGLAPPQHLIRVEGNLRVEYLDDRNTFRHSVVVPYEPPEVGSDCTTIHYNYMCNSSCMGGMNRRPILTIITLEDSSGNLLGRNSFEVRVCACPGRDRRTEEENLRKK

Sequence of T-p53-Y220C (P04637 102-292 limits assumed, stated change not applied): as the sequence (P04637 102-292 limits assumed, stated change not applied) above

| Structure (SMILES) | Kd (p53 mutant Y220C [1]) [µM] | effect on melting temperature of the protein (p53 mutant Y220C [2]) | Kd (T-p53-Y220C) [µM] | Kd (T-p53C-Y220C) [µM] |
| --- | --- | --- | --- | --- |
| CCn1c2ccccc2c2cc(CNC)ccc21 [PhiKan083] | 150 | raises the melting temperature | – | – |
| CN1CCC(N(C)Cc2cc(I)cc(I)c2O)CC1 [compound 3, 2,4-diiodo-6-((methyl(1-methylpiperidin-4-yl)amino)methyl)phenol] | – | – | 184 ± 23 | 225 |
